The results in this text go back to US9938279B2, “Method for treating disease or condition susceptible to amelioration by AMPK activators and compounds of formula which are useful to activate AMP-activated protein kinase (AMPK)” (ENERGENESIS BIOMEDICAL CO., LTD, priority 2013, dated 2018).

The test system of test [1] is AMPK. The test is described as follows: AMPK activation assay (western blot phospho-AMPK Thr172) in C2C12. Format: cell-based, mouse. To be noted: C2C12 cells, 30 min treatment. The procedure:
(§1) Effects of compounds on AMPK activation were analyzed in mouse muscle cell C2C12, mouse fibroblast 3T3-L1 and human hepatocyte Hep G2. Those cell lines were cultured in high-glucose Dulbecco's modified Eagle's medium (DMEM) containing 10% fetal bovine serum (FBS), 4 mM L-glutamine, 2 mM sodium pyruvate and 1% penicillin/streptomycin (Invitrogen GibcoBRL, Carlsbad, Calif., USA) at 37° C. under 5% CO2. Cells were plated at 3×10^5 per well (6-well plate). 24 h after plating, cells were treated with indicated compounds for 30 min followed by cell lysis and western blot analysis. Equal amount of protein were separated by SDS-PAGE and then electroblotted on to PVDF membranes. Membranes were blocked with 3% BSA in PBS for 60 min and incubated with anti-phospho-AMPK (Thr172) antibody (1:2,000, Cell signaling), anti-AMPK antibody (1:2,000, Cell signaling), anti-Glut4 antibody (1:1,000, Millipore) or anti-actin antibody (1:5,000; Chemicon International) at 4° C. overnight followed by the corresponding secondary antibody for 1 h at room temperature (RT). Immunoreactive bands were detected by enhanced chemiluminescence (ECL; Pierce, Rockford, Ill., USA) and recorded using Kodakfilm (Rochester, N.Y., USA). The detected signals were scanned and then quantified by using TotalLab Quant software (TotalLab).

The test system of test [2] is AMPK. The test is described as follows: AMPK activation assay (western blot phospho-AMPK Thr172) in 3T3-L1. Format: cell-based, mouse. To be noted: 3T3-L1 cells, 30 min treatment. The procedure: as §1
Test [3] has as its system AMPK. The test is described as follows: AMPK activation assay (western blot phospho-AMPK Thr172) in Hep G2. Format: cell-based, human. To be noted: Hep G2 cells, 30 min treatment. The protocol:
as §1

Structures are written as SMILES.

Consider `Nc1nc(S)c2[nH]cnc2n1` [Example 2-amino-6-mercaptopurine, 2-amino-6-mercaptopurine], for which the “AMPK activation (% to control) C2C12” value in test [1] (1 microM) is listed as 118 % to control; in test [1] (10 microM) it was 122 % to control; in test [1] (100 microM) it was 228 % to control; in test [1] (200 microM), 284 % to control. For the same compound, the “AMPK activation (% to control) 3T3-L1” value in test [2] (1 microM) is listed as 105 % to control; in test [2] (10 microM), 119 % to control; in test [2] (100 microM), 251 % to control; in test [2] (200 microM) it was 277 % to control. The “AMPK activation (% to control) Hep G2” value is 112 % to control in test [3] (1 microM), 124 % to control in test [3] (10 microM), 209 % to control in test [3] (100 microM) and 261 % to control in test [3] (200 microM).

`CNc1nc(N)nc2nc[nH]c12` [Example 2-amino-6-methylaminopurine, 2-amino-6-methylaminopurine]: the “AMPK activation (% to control) C2C12” value in test [1] (1 microM) is 119 % to control; in test [1] (10 microM) it was 187 % to control; in test [1] (100 microM) it was 215 % to control; in test [1] (200 microM), 351 % to control. Besides, the “AMPK activation (% to control) 3T3-L1” value was 109 % to control in test [2] (1 microM), 135 % to control in test [2] (10 microM), 220 % to control in test [2] (100 microM) and 332 % to control in test [2] (200 microM). Moreover, the “AMPK activation (% to control) Hep G2” value in test [3] (1 microM) is 114 % to control; in test [3] (10 microM) it was 139 % to control; in test [3] (100 microM), 230 % to control; in test [3] (200 microM), 348 % to control.

Turning to `Nc1nc(NCc2ccccc2)nc2nc[nH]c12` [Example 2-benzylamino-6-aminopurine, 2-benzylamino-6-aminopurine], the “AMPK activation (% to control) C2C12” value in test [1] (1 microM) is listed as 110 % to control; in test [1] (10 microM), 128 % to control; in test [1] (100 microM) it was 259 % to control; in test [1] (200 microM), 312 % to control. The “AMPK activation (% to control) 3T3-L1” value was 119 % to control in test [2] (1 microM), 147 % to control in test [2] (10 microM), 217 % to control in test [2] (100 microM) and 308 % to control in test [2] (200 microM). Moreover, the “AMPK activation (% to control) Hep G2” value is listed as 105 % to control in test [3] (1 microM), 116 % to control in test [3] (10 microM), 235 % to control in test [3] (100 microM) and 364 % to control in test [3] (200 microM).

For `Nc1nc(Br)nc2nc[nH]c12` [Example 2-bromoadenine, 2-bromoadenine], the “AMPK activation (% to control) C2C12” value in test [1] (1 microM) is listed as 116 % to control; in test [1] (10 microM), 172 % to control; in test [1] (100 microM), 263 % to control; in test [1] (200 microM) it was 349 % to control. Moreover, the “AMPK activation (% to control) 3T3-L1” value is listed as 119 % to control in test [2] (1 microM), 188 % to control in test [2] (10 microM), 277 % to control in test [2] (100 microM) and 361 % to control in test [2] (200 microM). Moreover, the “AMPK activation (% to control) Hep G2” value in test [3] (1 microM) is 113 % to control; in test [3] (10 microM) it was 190 % to control; in test [3] (100 microM) it was 253 % to control; in test [3] (200 microM), 354 % to control.

For the compound `O=c1[nH]c(Br)nc2nc[nH]c12` [Example 2-bromohypoxanthine, 2-bromohypoxanthine], the “AMPK activation (% to control) C2C12” value in test [1] (1 microM) is listed as 108 % to control; in test [1] (10 microM), 142 % to control; in test [1] (100 microM), 214 % to control; in test [1] (200 microM) it was 321 % to control. For the same compound, the “AMPK activation (% to control) 3T3-L1” value in test [2] (1 microM) is reported as 111 % to control; in test [2] (10 microM), 176 % to control; in test [2] (100 microM), 245 % to control; in test [2] (200 microM), 357 % to control. The “AMPK activation (% to control) Hep G2” value in test [3] (1 microM) was 110 % to control; in test [3] (10 microM), 160 % to control; in test [3] (100 microM) it was 242 % to control; in test [3] (200 microM) it was 359 % to control.

On to `Oc1nc(Cl)nc2nc[nH]c12` [Example 2-chloro-6-hydroxypurine, 2-chloro-6-hydroxypurine], for which the “AMPK activation (% to control) C2C12” value is given as 109 % to control in test [1] (1 microM), 156 % to control in test [1] (10 microM), 277 % to control in test [1] (100 microM) and 331 % to control in test [1] (200 microM). Besides, the “AMPK activation (% to control) 3T3-L1” value in test [2] (1 microM) is 108 % to control; in test [2] (10 microM), 145 % to control; in test [2] (100 microM), 243 % to control; in test [2] (200 microM), 356 % to control. In addition, the “AMPK activation (% to control) Hep G2” value in test [3] (1 microM) is recorded as 110 % to control; in test [3] (10 microM) it was 163 % to control; in test [3] (100 microM), 249 % to control; in test [3] (200 microM), 375 % to control.

In the case of `Nc1nc(Cl)nc2nc[nH]c12` [Example 2-chloroadenine, 2-chloroadenine], the “AMPK activation (% to control) C2C12” value in test [1] (1 microM) is on record as 110 % to control; in test [1] (10 microM), 155 % to control; in test [1] (100 microM), 284 % to control; in test [1] (200 microM) it was 326 % to control. In addition, the “AMPK activation (% to control) 3T3-L1” value in test [2] (1 microM) was 118 % to control; in test [2] (10 microM), 143 % to control; in test [2] (100 microM), 271 % to control; in test [2] (200 microM), 311 % to control. The “AMPK activation (% to control) Hep G2” value is on record as 116 % to control in test [3] (1 microM), 139 % to control in test [3] (10 microM), 220 % to control in test [3] (100 microM) and 314 % to control in test [3] (200 microM).

Take `Nc1nc(F)nc2nc[nH]c12` [Example 2-fluoroadenine, 2-fluoroadenine]: the “AMPK activation (% to control) C2C12” value in test [1] (1 microM) is reported as 102 % to control; in test [1] (10 microM), 112 % to control; in test [1] (100 microM), 213 % to control; in test [1] (200 microM), 303 % to control. In addition, the “AMPK activation (% to control) 3T3-L1” value in test [2] (1 microM) was 114 % to control; in test [2] (10 microM) it was 165 % to control; in test [2] (100 microM), 291 % to control; in test [2] (200 microM), 323 % to control. Besides, the “AMPK activation (% to control) Hep G2” value in test [3] (1 microM) is given as 117 % to control; in test [3] (10 microM), 180 % to control; in test [3] (100 microM), 259 % to control; in test [3] (200 microM), 315 % to control.

As to `Oc1nc(NCc2ccccc2)c2[nH]cnc2n1` [Example 2-hydroxy-6-benzylaminopurine, 2-hydroxy-6-benzylaminopurine], the “AMPK activation (% to control) C2C12” value is listed as 108 % to control in test [1] (1 microM), 135 % to control in test [1] (10 microM), 244 % to control in test [1] (100 microM) and 356 % to control in test [1] (200 microM). The “AMPK activation (% to control) 3T3-L1” value is listed as 115 % to control in test [2] (1 microM), 126 % to control in test [2] (10 microM), 230 % to control in test [2] (100 microM) and 309 % to control in test [2] (200 microM). Also, the “AMPK activation (% to control) Hep G2” value in test [3] (1 microM) was 109 % to control; in test [3] (10 microM) it was 137 % to control; in test [3] (100 microM) it was 261 % to control; in test [3] (200 microM), 338 % to control.
